In US20190136321A1, “USE OF TRANSLATIONAL PROFILING TO IDENTIFY TARGET MOLECULES FOR THERAPEUTIC TREATMENT” (The Regents of The University of California, priority 2013, published 2019):

Assays:
Format in all cases: cell-based, human
PC3 cells [1] = experiment: Polysome analysis; conditions: 100 nM, 3-hour
Method: Cells were re-suspended in PBS containing 100 μg ml^−1 cycloheximide (Sigma) and incubated on ice for 10 min. Cells were centrifuged at 300 g for 5 min at 4° C. and lysed in 10 mM Tris-HCl pH 8, 140 mM NaCl, 5 mM MgCl2, 640 U ml^−1 Rnasin, 0.05% NP-40, 250 μg ml^−1 cycloheximide, 20 mM DTT, and protease inhibitors. Samples were incubated for 20 min on ice, then centrifuged once for 5 min at 3,300 g and once for 5 min at 9,300 g, isolating the supernatant after each centrifugation. Lysates were loaded onto 10-50% sucrose gradients containing 0.1 mg ml^−1 heparin and 2 mM DTT and centrifuged at 37,000 r.p.m. for 2.5 hr at 4° C. The sample was subsequently fractionated on a gradient fractionation system (ISCO). RNA was extracted from all fractions and run on a TBE-agarose gel to visualize 18S and 28S rRNA.

PC3 cells [2] = experiment: Matrigel invasion assay; conditions: 6-hr pre-treatment followed by 6 hr of cell invasion
From the text: BioCoat Matrigel Invasion Chambers (modified Boyden Chamber Assay; BD Biosciences) were used according to the manufacturer's instructions.

Snail1, LEF1 and Twist1 = experiment: Snail1 immunocytochemistry, LEF1/Twist1 Western blot and qPCR (YB1 target genes); conditions: PC3 cells, 200 nM
Method: Western blot analysis was performed as previously described (Hsieh et al., Cancer Cell 17:249-261 (2010)) with antibodies specific to phospho-AKT^S473 (Cell Signaling), AKT (Cell Signaling), phospho-p70S6K^T389 (Cell Signaling), phospho-rpS6^S240/244 (Cell Signaling), rpS6 (Cell Signaling), phospho-4EBP1^T37/46 (Cell Signaling), 4EBP1 (Cell Signaling), 4EBP2 (Cell Signaling), YB1 (Cell Signaling), CD44 (Cell Signaling), LEF1 (Cell Signaling), PTEN (Cell Signaling), eEF2 (Cell Signaling), GAPDH (Cell Signaling), vimentin (BD Biosciences), eIF4E (BD Biosciences), Flag (Sigma), β-actin (Sigma), MTA1 (Santa Cruz Biotechnology), Twist (Santa Cruz Biotechnology), rpL28 (Santa Cruz Biotechnology), HA (Covance) and rictor (Bethyl Laboratory).
RNA was isolated using the manufacturer's protocol for RNA extraction with TRIzol Reagent (Invitrogen) using the Pure Link RNA mini kit (Invitrogen). RNA was DNase-treated with Pure Link Dnase (Invitrogen). DNase-treated RNA was transcribed to cDNA with SuperScript III First-Strand Synthesis System for RT-PCR (Invitrogen), and 1 μl of cDNA was used to run a SYBR green detection qPCR assay (SYBR Green Supermix and MyiQ2, Biorad). […]
Appropriately transfected or treated PC3 cells were plated on a poly-L-lysine-coated chamber slide (Lab-Tek) and cultured for 48 hr. […] Image capture and quantification were completed as described below (see “Immunofluorescence”).

In the case of `CC(C)n1nc(-c2ccc3oc(N)nc3c2)c2c(N)ncnc21` [ATP site inhibitor of mTOR], the “association of YB1 and rpS19 mRNAs in polysome fractions” value (PC3 cells [1]) is reported as “differential association”, the “β-actin mRNA association in polysome fractions” value (PC3 cells [1]) is reported as “no change” and the “invasive potential of PC3 prostate cancer cells” value (PC3 cells [2]) is reported as “decreased”. The “protein levels but not mRNA levels of YB1 target genes (Snail1, LEF1, Twist1)” value (Snail1, LEF1 and Twist1) was “decreases”.
